Consider seven molecules from US20050043315A1, “Aminopyrimidine compounds, processes for their preparation and pharmaceutical compositions containing them” (priority 2002, published 2005).

The target of one data set is T1, human A1 receptor (Homo sapiens, UniProt P30542).
T1 sequence (P30542 1-326): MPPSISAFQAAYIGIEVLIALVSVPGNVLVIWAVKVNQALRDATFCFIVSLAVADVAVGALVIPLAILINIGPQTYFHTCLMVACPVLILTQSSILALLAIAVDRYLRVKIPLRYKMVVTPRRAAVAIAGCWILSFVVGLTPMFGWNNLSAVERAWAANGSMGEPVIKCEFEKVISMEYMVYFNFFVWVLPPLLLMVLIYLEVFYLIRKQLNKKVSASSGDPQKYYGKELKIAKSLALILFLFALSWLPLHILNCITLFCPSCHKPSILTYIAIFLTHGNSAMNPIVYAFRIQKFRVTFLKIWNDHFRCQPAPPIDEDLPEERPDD
Nature of the data set: Adenosine antagonistic activity, radioligand binding with [3H]DPCPX. Conditions: [3H]DPCPX 4.5 nM. The procedure:
(§1) The adenosine antagonistic activity [Ki(nM)] of the test compound was examined by radioligand binding techniques using 8-cyclopentyl-1,3-dipropylxanthine, [dipropyl-2,3-^3H(N)] ([^3H]DPCPX, 4.5 nM) for human A1 receptor and [^3H]CGS 21680 (20 nM) for human A2a receptor.

The next data set has as its system ddY mice. Briefly: Anticatalepsy activity in mouse (haloperidol-induced catalepsy). The data set is classed as in vivo. The settings on record: 3.2 mg/kg orally, ddY mice n=7; haloperidol 0.32 mg/kg i.p. 30 min after compound; measured 30 min after injection. As to the method: The test compound (3.2 mg/kg) was administered orally with ddY mice(n=7). Then, haloperidol (0.32 mg/kg) was injected intraperitoneally 30 min. after the administration of the compound. Thirty min. after the injection, the cataleptic responses of mice were measured. The forelimbs of each mouse were placed on a 3 cm high, 3 mm wide horizontal bar, and the duration of cataleptic posture was measured for up to 30 sec.

A further data set deals with human A2a receptor (Homo sapiens, UniProt P29274). Nature of the data set: Adenosine antagonistic activity, radioligand binding with [3H]CGS 21680. The settings on record: [3H]CGS 21680 20 nM. As to the method:
as §1

The Ki is the equilibrium dissociation constant of an inhibitor or competing ligand from its target. Lower therefore signals higher affinity. One may read the melting point as the temperature of the solid-liquid transition.

Sequence of human A2a receptor (P29274 whole entry): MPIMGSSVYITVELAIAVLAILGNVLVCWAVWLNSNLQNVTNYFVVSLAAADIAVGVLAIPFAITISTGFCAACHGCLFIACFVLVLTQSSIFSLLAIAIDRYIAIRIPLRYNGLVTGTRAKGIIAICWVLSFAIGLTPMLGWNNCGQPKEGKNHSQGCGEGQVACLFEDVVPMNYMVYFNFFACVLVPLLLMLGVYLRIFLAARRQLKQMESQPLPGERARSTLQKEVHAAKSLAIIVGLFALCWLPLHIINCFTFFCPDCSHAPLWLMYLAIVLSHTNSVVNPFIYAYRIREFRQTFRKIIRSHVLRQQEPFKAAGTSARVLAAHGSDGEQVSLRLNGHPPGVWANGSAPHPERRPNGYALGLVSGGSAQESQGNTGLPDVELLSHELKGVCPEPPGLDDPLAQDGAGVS

On to `Nc1ncc(-c2ccc(=O)[nH]n2)c(-c2ccccc2)n1` [Example 1, 6-(2-Amino-4-phenyl-5-pyrimidinyl)-3(2H)-pyridazinone], for which the melting point was above 280 °C. Further, the Ki at human A1 receptor was 11.3 nM. Further, the “Manifestation rate of catalepsy (number of mouse)” value (from here on “Manifestation rate of catalepsy”) in the data set on ddY mice was 4/7. This molecule also returned an inhibitory constant (Ki) at human A2a receptor of 3.85 nM.

As for `CCn1nc(-c2cnc(N)nc2-c2ccccc2)ccc1=O` [Example 4, 6-(2-Amino-4-phenyl-5-pyrimidinyl)-2-ethyl-3(2H)-pyridazinone], the melting point lay within 255 to 256 °C. Also, the affinity on human A1 receptor, expressed as Ki, was 3.14 nM. Also, in the data set with ddY mice, the “Manifestation rate of catalepsy” value is reported as 0/7. The same molecule had an inhibition constant (Ki) at human A2a receptor of 4.35 nM.

`CC(=O)Nc1ncc(-c2ccc(=O)n(C(C)C)n2)c(-c2ccccc2)n1` [Example 7, N-[5-(1-Isopropyl-6-oxo-1,6-dihydro-3-pyridazinyl)-4-phenyl-2-pyrimidinyl]acetamide] returned a melting point of 209 to 210 °C. The same molecule displayed a Ki at human A1 receptor of 6.47 nM. In the data set on ddY mice, the “Manifestation rate of catalepsy” value was 0/7. On human A2a receptor, this molecule returned a Ki of 2.09 nM.

For the molecule `CC(C)n1nc(-c2cnc(NCc3ccccn3)nc2-c2ccccc2)ccc1=O` [Example 18, 2-Isopropyl-6-{4-phenyl-2-[(2-pyridinylmethyl)amino]-5-pyrimidinyl}-3(2H)-pyridazinone], the melting point is 143 to 144.5 °C. The molecule also came in with a Ki at human A1 receptor of 10.8 nM. Moreover, in the data set with ddY mice, the “Manifestation rate of catalepsy” value is 0/7. Moreover, on human A2a receptor, the affinity, expressed as Ki, was 7.38 nM.

In turn, `CC(C)n1nc(-c2cnc(N)nc2-c2ccco2)ccc1=O` [Example 47, 6-[2-Amino-4-(2-furyl)-5-pyrimidinyl]-2-isopropyl-3(2H)-pyridazinone] yielded a melting point of 215 °C. For the same molecule, affinity on human A1 receptor was put at a Ki of 7.74 nM. Also, the “Manifestation rate of catalepsy” value with ddY mice was 1/7. On human A2a receptor, the affinity corresponds to a Ki of 1.38 nM.

Molecule `CC(C)n1nc(-c2c(F)nc(N)nc2-c2ccccc2)ccc1=O` [Example 136, 6-(2-Amino-4-fluoro-6-phenyl-5-pyrimidinyl)-2-isopropyl-3(2H)-pyridazinone] returned a melting point of 231 to 232.5 °C. This molecule also had a Ki on human A1 receptor of 1.75 nM. In the data set on ddY mice, the “Manifestation rate of catalepsy” value is reported as 0/7. Besides, on human A2a receptor, the affinity corresponds to a Ki of 1.41 nM.

Turning to `COCCOc1ccc(-c2nc(N)ncc2-c2ccc(=O)n(C(C)C)n2)cc1` [Example 212, 6-{2-Amino-4-[4-(2-methoxyethoxy)phenyl]-5-pyrimidinyl}-2-isopropyl-3(2H)-pyridazinone], the melting point was determined as 147 °C. The molecule also showed a Ki on human A1 receptor of 2.36 nM. For the same molecule, the “Manifestation rate of catalepsy” value in the data set on ddY mice is 0/7. At human A2a receptor, the affinity, expressed as Ki, was 1.7 nM.
